Target: T1, N-type calcium channel α1B (Cav2.2), β3 and α2δ subunits (Homo sapiens, UniProt Q00975)
T1 construct: expressed in transfected cells
Test: Functional assay, antagonism of N-type calcium channel (FDSS calcium mobilization response to KCl depolarization)
Assay type: cell-based
Conditions: for IC50: HEK stable cell line, 50 mM KCl depolarization, six-point concentration-response; for inhibition at 0.33 µM: 0.33 μM compound, FDSS, 50 mM KCl
Description: A stable cell line (HEK parent) co-expressing the α1B (Cav2.2), β3 and α2δ subunits of the N-type calcium channel subunits was used. These cells were routinely grown as monolayers in low glucose-containing Dulbecco's Modified Eagle Medium supplemented with 10% FBS, 2 mM L-glutamine, 100 I.U./mL penicillin, 100 μg/mL streptomycin, 400 μg/mL G418 and 200 μg/mL Zeocin (split ratio=1:5). Cells were maintained in 5% CO2 at 37° C. Compounds of Formula (I) were prepared as 10 mM stocks in DMSO from neat compound, if available. Otherwise, the 5 or 10 mM DMSO stock solutions provided in-house were used.
Calcium mobilization responses to KCl depolarization were evaluated by measuring the intensity of calcium-mediated fluorescent signal in the presence of BD Calcium Assay Dye (BD Biosciences, Franklin Lakes, N.J., U.S.A.), utilizing a Functional Drug Screening System (FDSS) by Hamamatsu Corporation (Bridgewater, N.J. U.S.A.).
Twenty-four hr prior to assay, cells were seeded in clear-base poly-D-lysine-coated 384-well plates (BD Biosciences) at a density of 5,000 cells per well in culture medium and grown overnight in 5% CO2 at 37° C. On the day of assay, growth media were removed, and cells were loaded with BD calcium assay dye (BD Biosciences) for 35 min at 37° C. under 5% CO2 and then for 25 min at room temp. Utilizing the FDSS, cells were exposed to representative compounds of Formula (I) at varying concentrations, and intracellular calcium was measured for 5 min prior to the addition of 50 mM KCl for an additional 3 min of measurement.
IC50 values for representative compounds of Formula (I) were determined from six-point concentration-response experiments and represent the concentration of said compound required to inhibit 50% of the maximal response. Maximal fluorescence intensity (FI) achieved upon addition of 50 mM KCl was exported from the FDSS software and further analyzed using GraphPad Prism 3.02 (Graph Pad Software Inc., San Diego, Calif., U.S.A.). Data were normalized to the maximum average counts from quadruplicate wells for each condition in the presence of 50 mM KCl and to the minimum average counts in the presence of buffer. Theoretical curves were generated using nonlinear regression curve-fitting analysis of either sigmoidal concentration-response or sigmoidal concentration-response (variable slope), and the IC50 values with the best-fit curve determined by GraphPad Prism were reported.

T1 sequence (Q00975 whole entry): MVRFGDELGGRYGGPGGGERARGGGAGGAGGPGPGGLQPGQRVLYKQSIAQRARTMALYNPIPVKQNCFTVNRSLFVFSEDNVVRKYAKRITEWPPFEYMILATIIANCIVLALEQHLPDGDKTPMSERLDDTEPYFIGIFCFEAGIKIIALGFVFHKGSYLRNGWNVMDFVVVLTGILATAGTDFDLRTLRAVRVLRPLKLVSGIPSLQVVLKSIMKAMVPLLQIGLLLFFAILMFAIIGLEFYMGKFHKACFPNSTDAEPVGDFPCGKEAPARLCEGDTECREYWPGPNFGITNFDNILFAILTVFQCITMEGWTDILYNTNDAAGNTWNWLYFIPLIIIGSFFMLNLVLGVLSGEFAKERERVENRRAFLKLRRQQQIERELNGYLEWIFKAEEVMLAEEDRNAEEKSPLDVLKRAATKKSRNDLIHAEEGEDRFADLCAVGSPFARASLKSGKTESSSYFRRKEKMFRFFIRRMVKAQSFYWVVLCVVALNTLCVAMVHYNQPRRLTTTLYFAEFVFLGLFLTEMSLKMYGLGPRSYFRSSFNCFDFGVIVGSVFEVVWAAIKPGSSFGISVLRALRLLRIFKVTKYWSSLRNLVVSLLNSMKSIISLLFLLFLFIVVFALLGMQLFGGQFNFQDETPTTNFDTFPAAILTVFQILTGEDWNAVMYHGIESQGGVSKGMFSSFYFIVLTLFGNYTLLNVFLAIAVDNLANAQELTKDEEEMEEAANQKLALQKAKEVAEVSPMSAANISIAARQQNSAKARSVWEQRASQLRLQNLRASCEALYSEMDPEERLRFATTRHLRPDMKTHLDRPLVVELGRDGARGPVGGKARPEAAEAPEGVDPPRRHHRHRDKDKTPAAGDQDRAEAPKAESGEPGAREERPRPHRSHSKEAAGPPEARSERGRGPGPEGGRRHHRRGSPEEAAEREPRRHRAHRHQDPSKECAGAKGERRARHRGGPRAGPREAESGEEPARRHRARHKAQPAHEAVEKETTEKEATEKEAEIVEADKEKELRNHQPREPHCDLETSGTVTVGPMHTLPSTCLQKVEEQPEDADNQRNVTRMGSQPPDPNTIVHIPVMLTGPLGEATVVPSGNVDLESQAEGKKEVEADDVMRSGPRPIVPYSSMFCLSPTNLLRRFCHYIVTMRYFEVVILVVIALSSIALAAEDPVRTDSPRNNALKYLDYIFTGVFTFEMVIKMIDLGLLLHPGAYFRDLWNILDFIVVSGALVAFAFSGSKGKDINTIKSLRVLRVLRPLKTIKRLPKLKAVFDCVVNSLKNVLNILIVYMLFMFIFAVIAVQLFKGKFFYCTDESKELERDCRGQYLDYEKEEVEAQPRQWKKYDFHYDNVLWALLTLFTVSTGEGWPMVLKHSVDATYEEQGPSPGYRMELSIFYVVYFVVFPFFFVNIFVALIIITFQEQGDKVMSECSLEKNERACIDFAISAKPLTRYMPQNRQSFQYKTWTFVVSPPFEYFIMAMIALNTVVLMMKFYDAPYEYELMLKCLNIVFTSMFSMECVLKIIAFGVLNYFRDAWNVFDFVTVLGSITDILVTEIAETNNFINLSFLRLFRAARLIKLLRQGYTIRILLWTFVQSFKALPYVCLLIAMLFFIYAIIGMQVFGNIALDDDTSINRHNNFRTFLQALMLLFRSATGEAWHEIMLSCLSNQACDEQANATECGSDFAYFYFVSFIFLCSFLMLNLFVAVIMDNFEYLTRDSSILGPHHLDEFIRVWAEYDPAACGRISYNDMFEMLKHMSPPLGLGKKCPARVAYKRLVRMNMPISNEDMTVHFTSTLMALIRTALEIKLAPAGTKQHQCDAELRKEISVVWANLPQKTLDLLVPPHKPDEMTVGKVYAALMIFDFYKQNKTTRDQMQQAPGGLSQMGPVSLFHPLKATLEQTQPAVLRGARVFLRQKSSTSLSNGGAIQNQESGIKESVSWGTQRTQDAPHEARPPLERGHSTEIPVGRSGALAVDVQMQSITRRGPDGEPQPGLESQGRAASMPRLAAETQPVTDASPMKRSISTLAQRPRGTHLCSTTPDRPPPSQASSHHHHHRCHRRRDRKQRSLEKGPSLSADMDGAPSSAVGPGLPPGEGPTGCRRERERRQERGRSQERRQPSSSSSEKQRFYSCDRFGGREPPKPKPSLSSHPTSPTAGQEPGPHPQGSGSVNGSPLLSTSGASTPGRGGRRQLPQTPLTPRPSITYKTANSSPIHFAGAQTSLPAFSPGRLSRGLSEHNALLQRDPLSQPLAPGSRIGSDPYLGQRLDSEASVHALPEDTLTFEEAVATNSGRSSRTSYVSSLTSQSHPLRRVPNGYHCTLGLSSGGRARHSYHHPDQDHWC
T1 sequence (P54284 whole entry partner): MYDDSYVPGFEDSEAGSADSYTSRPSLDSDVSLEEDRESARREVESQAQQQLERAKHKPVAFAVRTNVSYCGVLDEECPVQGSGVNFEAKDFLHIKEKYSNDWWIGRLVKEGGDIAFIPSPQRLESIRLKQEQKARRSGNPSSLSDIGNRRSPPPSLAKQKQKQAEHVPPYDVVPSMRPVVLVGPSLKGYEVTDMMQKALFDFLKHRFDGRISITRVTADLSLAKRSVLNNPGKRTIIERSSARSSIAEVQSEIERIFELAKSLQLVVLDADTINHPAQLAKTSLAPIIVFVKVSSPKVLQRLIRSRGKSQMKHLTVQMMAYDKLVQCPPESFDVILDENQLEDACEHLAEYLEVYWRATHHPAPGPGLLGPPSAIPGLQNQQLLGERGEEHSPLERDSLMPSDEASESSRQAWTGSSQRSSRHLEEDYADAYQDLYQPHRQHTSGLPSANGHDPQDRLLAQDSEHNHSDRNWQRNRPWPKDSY
T1 sequence (P54289 25-956 partner limits assumed): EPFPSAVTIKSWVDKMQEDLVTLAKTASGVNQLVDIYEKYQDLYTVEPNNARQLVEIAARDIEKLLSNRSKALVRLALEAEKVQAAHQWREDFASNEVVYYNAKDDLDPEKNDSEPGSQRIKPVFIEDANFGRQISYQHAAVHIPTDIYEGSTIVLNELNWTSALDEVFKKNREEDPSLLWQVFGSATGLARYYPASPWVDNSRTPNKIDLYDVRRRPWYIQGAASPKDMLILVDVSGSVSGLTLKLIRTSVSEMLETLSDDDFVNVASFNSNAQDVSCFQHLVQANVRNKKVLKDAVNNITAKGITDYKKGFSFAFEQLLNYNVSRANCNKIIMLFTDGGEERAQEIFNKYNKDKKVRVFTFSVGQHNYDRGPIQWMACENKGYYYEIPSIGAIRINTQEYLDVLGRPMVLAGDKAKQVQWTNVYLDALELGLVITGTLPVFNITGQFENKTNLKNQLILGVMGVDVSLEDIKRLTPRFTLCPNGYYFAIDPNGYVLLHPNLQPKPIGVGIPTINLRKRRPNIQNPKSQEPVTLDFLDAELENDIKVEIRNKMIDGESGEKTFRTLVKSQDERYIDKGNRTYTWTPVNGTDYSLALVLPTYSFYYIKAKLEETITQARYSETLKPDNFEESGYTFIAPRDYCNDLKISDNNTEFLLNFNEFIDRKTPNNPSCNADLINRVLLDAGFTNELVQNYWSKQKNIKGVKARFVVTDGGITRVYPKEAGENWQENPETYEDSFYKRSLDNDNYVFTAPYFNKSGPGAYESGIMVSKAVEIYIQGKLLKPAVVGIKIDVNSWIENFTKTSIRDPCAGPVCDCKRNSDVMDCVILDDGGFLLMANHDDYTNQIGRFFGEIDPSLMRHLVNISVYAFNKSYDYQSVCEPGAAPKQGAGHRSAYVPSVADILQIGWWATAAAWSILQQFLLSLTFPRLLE
T1 sequence (P54289 957-1103 partner limits assumed): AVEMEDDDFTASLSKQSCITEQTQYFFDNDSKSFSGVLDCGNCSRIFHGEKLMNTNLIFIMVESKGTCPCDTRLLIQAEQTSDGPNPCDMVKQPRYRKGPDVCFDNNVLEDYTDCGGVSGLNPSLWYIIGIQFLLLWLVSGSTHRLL

| IC50 [nM] | inhibition at 0.33 µM [%] | Structure (SMILES) |
| --- | --- | --- |
| 3 | – | CC(C)Oc1ccccc1-n1nc2c(c1-c1ccc(Cl)cc1)CN(S(=O)(=O)N(C)C)C2 [Cpd 63, 3-(4-Chlorophenyl)-N,N-dimethyl-2-[2-(1-methylethoxy)phenyl]-2,6-dihydropyrrolo[3,4-c]pyrazole-5(4H)-sulfonamide] |
| – | 35 | COc1ccc(-n2nc3c(c2-c2ccc(Cl)cc2)CN(S(C)(=O)=O)C3)c(C)c1 [Cpd 66, 3-(4-Chlorophenyl)-2-(4-methoxy-2-methylphenyl)-5-(methylsulfonyl)-2,4,5,6-tetrahydropyrrolo[3,4-c]pyrazole] |
| 190 | 61 | COc1ccc(-n2nc3c(c2-c2ccc(Cl)cc2)CN(S(=O)(=O)C(C)C)C3)c(C)c1 [Cpd 67, 3-(4-Chlorophenyl)-2-(4-methoxy-2-methylphenyl)-5-[(1-methylethyl)sulfonyl]-2,4,5,6-tetrahydropyrrolo[3,4-c]pyrazole] |
| 130 | 71 | COc1ccc(-n2nc3c(c2-c2ccc(Cl)cc2)CN(S(=O)(=O)C2CCCCC2)C3)c(C)c1 [Cpd 68, 3-(4-Chlorophenyl)-5-(cyclohexylsulfonyl)-2-(4-methoxy-2-methylphenyl)-2,4,5,6-tetrahydropyrrolo[3,4-c]pyrazole] |
| 130 | 69 | COc1ccc(-n2nc3c(c2-c2ccc(Cl)cc2)CN(S(=O)(=O)N(C)C)C3)c(C)c1 [Cpd 69, 3-(4-Chlorophenyl)-2-(4-methoxy-2-methylphenyl)-N,N-dimethyl-2,6-dihydropyrrolo[3,4-c]pyrazole-5(4H)-sulfonamide] |
| 75 | 74 | COc1cc(F)ccc1-n1nc2c(c1-c1ccc(Cl)cc1)CN(S(C)(=O)=O)C2 [Cpd 70, 3-(4-Chlorophenyl)-2-(4-fluoro-2-methoxyphenyl)-5-(methylsulfonyl)-2,4,5,6-tetrahydropyrrolo[3,4-c]pyrazole] |
| 95 | 82 | COc1cc(F)ccc1-n1nc2c(c1-c1ccc(Cl)cc1)CN(S(=O)(=O)C1CCCCC1)C2 [Cpd 72, 3-(4-Chlorophenyl)-5-(cyclohexylsulfonyl)-2-(4-fluoro-2-methoxyphenyl)-2,4,5,6-tetrahydropyrrolo[3,4-c]pyrazole] |
| 47 | 82 | COc1cc(C)ccc1-n1nc2c(c1-c1ccc(Cl)cc1)CN(S(C)(=O)=O)C2 [Cpd 74, 3-(4-Chlorophenyl)-2-(2-methoxy-4-methylphenyl)-5-(methylsulfonyl)-2,4,5,6-tetrahydropyrrolo[3,4-c]pyrazole] |
| 32 | 93 | COc1cc(C)ccc1-n1nc2c(c1-c1ccc(Cl)cc1)CN(S(=O)(=O)C(C)C)C2 [Cpd 75, 3-(4-Chlorophenyl)-2-(2-methoxy-4-methylphenyl)-5-[(1-methylethyl)sulfonyl]-2,4,5,6-tetrahydropyrrolo[3,4-c]pyrazole] |
| 56 | 82 | COc1cc(C)ccc1-n1nc2c(c1-c1ccc(Cl)cc1)CN(S(=O)(=O)N1CCC(C)CC1)C2 [Cpd 77, 3-(4-Chlorophenyl)-2-(2-methoxy-4-methylphenyl)-5-[(4-methylpiperidin-1-yl)sulfonyl]-2,4,5,6-tetrahydropyrrolo[3,4-c]pyrazole] |
| 200 | 62 | COc1ccc(-n2nc3c(c2-c2ccc(Cl)cc2)CN(S(C)(=O)=O)C3)c(F)c1 [Cpd 78, 3-(4-Chlorophenyl)-2-(2-fluoro-4-methoxyphenyl)-5-(methylsulfonyl)-2,4,5,6-tetrahydropyrrolo[3,4-c]pyrazole] |
| 180 | 61 | COc1ccc(-n2nc3c(c2-c2ccc(Cl)cc2)CN(S(=O)(=O)C(C)C)C3)c(F)c1 [Cpd 79, 3-(4-Chlorophenyl)-2-(2-fluoro-4-methoxyphenyl)-5-[(1-methylethyl)sulfonyl]-2,4,5,6-tetrahydropyrrolo[3,4-c]pyrazole] |
| 140 | 62 | COc1ccc(-n2nc3c(c2-c2ccc(Cl)cc2)CN(S(=O)(=O)N2CCC(C)CC2)C3)c(F)c1 [Cpd 80, 3-(4-Chlorophenyl)-2-(2-fluoro-4-methoxyphenyl)-5-[(4-methylpiperidin-1-yl)sulfonyl]-2,4,5,6-tetrahydropyrrolo[3,4-c]pyrazole] |
| 85 | 80 | CN(C)S(=O)(=O)N1Cc2nn(-c3ccccc3OCC(F)(F)F)c(-c3ccc(Cl)cc3)c2C1 [Cpd 90, 3-(4-Chlorophenyl)-N,N-dimethyl-2-[2-(2,2,2-trifluoroethoxy)phenyl]-2,6-dihydropyrrolo[3,4-c]pyrazole-5(4H)-sulfonamide] |
| 100 | – | COc1ccccc1-n1nc2c(c1-c1cnc3ccccc3c1)CN(S(=O)(=O)C(C)C)C2 [Cpd 93, 3-{2-(2-Methoxyphenyl)-5-[(1-methylethyl)sulfonyl]-2,4,5,6-tetrahydropyrrolo[3,4-c]pyrazol-3-yl}quinoline] |
| – | 46 | COc1ccccc1-n1nc2c(c1-c1ccc(C)nc1)CN(S(=O)(=O)C(C)C)C2 [Cpd 94, 2-(2-Methoxyphenyl)-5-[(1-methylethyl)sulfonyl]-3-(6-methylpyridin-3-yl)-2,4,5,6-tetrahydropyrrolo[3,4-c]pyrazole] |
| 130 | 79 | COc1ccccc1-n1nc2c(c1-c1ccc(OC(C)C)nc1)CN(S(=O)(=O)C(C)C)C2 [Cpd 96, 2-(2-Methoxyphenyl)-3-[6-(1-methylethoxy)pyridin-3-yl]-5-[(1-methylethyl)sulfonyl]-2,4,5,6-tetrahydropyrrolo[3,4-c]pyrazole] |

| Structure (SMILES) | IC50 [nM] | inhibition at 0.33 µM [%] |
| --- | --- | --- |
| CN(C)S(=O)(=O)N1Cc2nn(-c3ccccc3OC(C)(C)C)c(-c3ccc(Cl)cc3)c2C1 [Cpd 91, 2-(2-tert-Butoxyphenyl)-3-(4-chlorophenyl)-N,N-dimethyl-2,6-dihydropyrrolo[3,4-c]pyrazole-5(4H)-sulfonamide] | 63 | 87 |
